The values that follow are results of earlier work, collected in patent US12471592B2, “Cytoprotective compositions for short-term cells storage and transportation without cryopreservation and deep freezing” (priority 2021, dated 2025).

Where two headings read alike, the source gives them in different places. Some results are limits rather than exact numbers.

One data set relates to mouse blastocysts. To be noted: for blastocysts survived: 20% vol/vol CPAs for 40 min at room temperature; for blastocysts subsequently developed: 30% vol/vol CPAs for 10 min at room temperature.
The next data set concerns endothelial cells. To be noted: reducing concentration from 3.0 M to 2.0 M.
Data set [1] concerns vascular endothelial cells. Particulars: vitrifying concentrations, 2-4° C. for 9 min.
Data set [2] deals with vascular endothelial cells. To be noted: for increase of permeability: raising the temperature from 2-4° C. to 22° C.; for Permeability: vascular endothelial cells, 2-4° C.
A further data set deals with bacteria. To be noted: 33% DMSO for 10 min.
Data set [3] deals with Chinese hamster ovary cell lines.
A further data set deals with mouse morula. To be noted: for minimum concentration giving significant reduction of mouse morula survival: 5 min of 25° C. exposure.
A further data set deals with fibroblasts. Particulars: 1% DMSO, within 5 sec.
The test system of another data set is Rat retina cells. To be noted: 24 hr exposure.
Another data set has as its system mouse oocytes. To be noted: increasing molarity.
Data set [4] concerns ARPE 19 human retinal pigment epithelial cell line.
[5] abbreviates: cytochrome P450 oxidation system added.

For `CC(O)CCO` (stereo not drawn) [1,3-butanediol], the blastocysts survived in the data set with mouse blastocysts is reported as 64.2%.
For `CC(O)C(C)O` (stereo not drawn) [BD, 2,3-butanediol], in the data set with endothelial cells, the “factor by which endothelial cell loss was cut” value is 35. Further, the cell survival in data set [1] is given as 76.3%. In data set [2], the increase of permeability was 17 fold and the Permeability was 4.1 cm/sec×10^−6. In the data set on mouse blastocysts, the blastocysts survived was 8.3% and the blastocysts subsequently developed is reported as 8.7%.
In the case of `C[S+](C)[O-]` [DMSO, dimethylsulfoxide], the “concentrations giving dose-dependent reduction in rat heart rate” value in the data set with rat heart rate is reported as “above 0.14 M”. Also, in the data set on bacteria, the increase in mutagenicity is recorded as 10 fold. In addition, the chromosome damage entry in [3] (setting [5]) was “not”. The chromosome damage result in data set [3] (without oxidation system) is “No chromosome damage”. Besides, the “factor by which endothelial cell loss was cut” value with endothelial cells was 3. Besides, the cell survival in data set [1] is on record as 37.0%. Further, in data set [2], the increase of permeability was 17 fold and the Permeability was 2.4 cm/sec×10^−6. Moreover, in the data set on mouse morula, the “minimum concentration giving significant reduction of mouse morula survival” value is 5 M. Moreover, in the data set on mouse blastocysts, the blastocysts survived is given as 96.7% and the blastocysts subsequently developed is 25.0%. Besides, the “increase of intracellular calcium” value in the data set with fibroblasts was “two- to six-fold”. The “concentration at which apoptosis was exhibited” value in the data set on Rat retina cells is no less than 0.1 % vol/vol. Moreover, in the data set on rat myocardium (at 15° C.), the “concentration giving irreversible ultrastructural alterations to rat myocardium” value is “above 2.82 M”. For the same compound, the “concentration giving irreversible ultrastructural alterations to rat myocardium” value in the data set on rat myocardium (at 30° C.) is “above 1.41 M”.
Turning to `OCCO` [EG, ethylene glycol], in data set [3] (setting [5]), the chromosome damage result is listed as “substantial chromosome damage”. Also, the chromosome damage result in data set [3] (without oxidation system) is given as “No chromosome damage”. Moreover, in [1], the cell survival is 33.2%. In addition, in data set [2], the increase of permeability entry was “nine-fold” and the Permeability is reported as 2.0 cm/sec×10^−6. Further, the “minimum concentration giving significant reduction of mouse morula survival” value in the data set on mouse morula is 7 M. In addition, in the data set on mouse blastocysts, the blastocysts survived is given as 95.8% and the blastocysts subsequently developed is 74.6%.
Take `OCC(O)CO` [GLY, glycerol]: in the data set with mouse morula, the “minimum concentration giving significant reduction of mouse morula survival” value was 6 M. The blastocysts survived in the data set on mouse blastocysts is 81.7%.
On to `CO` [METH, methanol], for which the “concentrations resulting in protein damage or proteolysis” value in the data set on fish oocytes is listed as “above 6 M”. Besides, the “concentration showing reduced mouse morula survival” value in the data set with mouse morula (10 min exposure) is on record as 6 M.
Take `CC(O)CO` (stereo not drawn) [PG, propylene glycol]: in [3] (without oxidation system), the chromosome damage entry is “substantial chromosome damage”. Further, in data set [1], the cell survival was 63.6%. For the same compound, in data set [2], the increase of permeability is 13 fold and the Permeability is listed as 3.0 cm/sec×10^−6. In the data set with mouse morula, the “minimum concentration giving significant reduction of mouse morula survival” value is given as 4 M. Further, in the data set on mouse blastocysts, the blastocysts survived is 87.5% and the blastocysts subsequently developed is 2.1%. Besides, the “formaldehyde increase relative to DMSO or GLY” value in the data set with mouse oocytes is recorded as “more than 30 fold”. Besides, the “concentration impairing the developmental potential of mouse zygotes by decreasing intracellular pH” value in the data set on mouse zygotes is listed as greater than 2.5 M.
With `O=c1c(O)c(-c2ccc(O)c(O)c2)oc2cc(O)cc(O)c12` [quercetin], the “level of ROS” value in [4] (compared with the control groups, 300 μM H2O2) is recorded as “decreased”. Besides, the cell viability result in [4] (pretreated with quercetin (0.80 μM) before exposure to 300 μM H2O2) is reported as “preserved in quercetin group in a dose dependent manner, particularly at 20 μM”.
